Results reported in PubChem BioAssay (NCI).
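Protocol summary: plate cells (96-well), add compound at 5 concentrations, incubate 48 h, interpolate endpoints linearly. At the GI50, growth is halved. TGI is the concentration that stops growth completely.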

How the values were obtained:
Experiment in all cases: NCI anticancer screen, dose series, 48 h
DMS 114 small cell lung = tested on: DMS 114 small cell lung
M19-MEL melanoma = tested on: M19-MEL melanoma
HOP-18 NSCLC = tested on: HOP-18 NSCLC
DMS 273 small cell lung = tested on: DMS 273 small cell lung
DLD-1 colon = tested on: DLD-1 colon
LXFL 529 NSCLC = tested on: LXFL 529 NSCLC
SNB-78 CNS = tested on: SNB-78 CNS
XF 498 CNS = tested on: XF 498 CNS
RXF-631 renal = tested on: RXF-631 renal

Row | SMILES | TGI (DMS 114 small cell lung) [µM] | TGI (M19-MEL melanoma) [µM] | TGI (HOP-18 NSCLC) [µM] | TGI (DMS 273 small cell lung) [µM] | TGI (DLD-1 colon) [µM] | TGI (LXFL 529 NSCLC) [µM] | TGI (SNB-78 CNS) [µM] | TGI (XF 498 CNS) [µM] | TGI (RXF-631 renal) [µM] | GI50 (XF 498 CNS) [µM] | GI50 (HOP-18 NSCLC) [µM] | GI50 (DMS 273 small cell lung) [µM] | GI50 (DLD-1 colon) [µM] | GI50 (LXFL 529 NSCLC) [µM] | GI50 (SNB-78 CNS) [µM] | GI50 (M19-MEL melanoma) [µM]
1 | CCOC(=O)CCc1c(C)c2c(OC(C)=O)cc(OC(C)=O)cc2oc1=O | 70.8 | > 100 | > 100 | > 100 | > 100 | > 100 | > 100 |  |  |  |  |  |  |  |  | 
2 | Cc1cc(C)n(CCNCCn2nc(C)cc2C)n1 | > 100 | > 100 |  | > 100 | > 100 | > 100 | > 100 | > 1 |  |  |  |  |  |  |  | 
3 | CN=NN(C)C(=O)NC | > 100 | > 100 | > 100 |  | > 100 | > 100 |  |  |  |  |  |  |  |  |  | 
4 | N#CC1(C2SCCS2=O)C2=C(C(=O)c3ccccc3C2=O)N2CCCC21 (configuration not stated) | 6 | 0.788 | 8.16 | 12.2 | 14.1 | 8.06 | 6.89 | 8.15 | 5.3 |  |  |  |  |  |  | 
5 | COC(=O)/C=C/C1C(C(=O)OC)C2(C(=O)OC)CCC1(C(=O)OC)N2 (configuration not stated) |  | > 100 | > 100 | > 100 | > 100 | > 100 | > 100 | > 100 | > 100 |  |  |  |  |  |  | 
6 | CCCCCCCCCc1cc(=O)c2c(O)cccc2o1 | > 100 | > 10 | > 100 | > 100 | > 100 | > 100 | > 100 | > 100 | > 100 |  |  |  |  |  |  | 
7 | O=S(O)CCCCSSCc1ccccc1CSSCCCCS(=O)O | 35.2 | 21.2 | > 100 | > 100 | > 100 | 24.8 |  | 25.5 | > 100 |  |  |  |  |  |  | 
8 | N#CC(C#N)=c1[nH]c2cccc3c2-c2c(cccc2c3=C(C#N)C#N)[nH]1 | > 100 |  | > 100 | > 100 | > 100 | > 100 | > 100 | > 100 |  |  |  |  |  |  |  | 
9 | CC(=O)OCC1OC([S-])C(OC(C)=O)C(OC(C)=O)C1OC(C)=O.CC[PH+](CC)CC.CC[PH+](CC)CC.[Au].[Au] (configuration not stated) |  | 0.806 | 0.694 | 2.11 | 0.49 | 0.322 | 2.79 | 0.449 |  | 0.181 | 0.253 | 0.453 | 0.174 | 0.153 | 0.311 | 
10 | CCOC(=O)c1[nH]c(COC(C)=O)c(CCCOC(C)=O)c1CCCOC(C)=O |  |  |  | > 100 |  | > 100 | > 100 | > 100 |  |  |  |  |  |  |  | 
11 | CCOC(=O)C1N(S(=O)(=O)c2ccc(C)cc2)CCC12C(c1ccc(OC)cc1)NC1CCCCC12 (configuration not stated) | > 100 | > 100 |  | > 100 | > 100 | > 100 | > 100 |  | > 100 |  |  |  |  |  |  | 
12 | CCOC(=O)[C@H](CCCNC(=O)OC(C)(C)C)NCc1ccc(OC)c(OC)c1 | > 100 | > 100 | > 100 | > 100 | > 100 | > 100 |  | > 100 | > 100 |  |  |  |  |  |  | 
13 | O=C(CCC(=O)Nc1cccc(Cl)c1)CC(=O)c1ccc(Cl)cc1 |  |  |  | > 100 |  | > 100 | > 100 | > 100 | > 100 |  |  |  |  |  |  | 
14 | NC1CCCC[C@H]1N.N[C@@H]1CCCC[C@@H]1N.O=C(P(=O)([O-])[O-])P(=O)([O-])[O-].[Pt+4].[Pt+4] |  | > 100 | > 100 | > 100 | > 100 | > 100 | > 100 |  |  |  | 59.6 | 32.3 | > 100 | > 100 | > 100 | 73
15 | CC(C)(C)N1CC2(CCCCC2)C1=O | > 100 | > 100 | > 100 | > 100 | > 100 |  | > 100 |  |  |  |  |  |  |  |  | 
16 | O=C(/C=C/c1ccccc1)/C=C/c1ccccc1 | 52.9 | 50.2 | 92.8 | > 100 | 32.5 | 50.1 | > 100 |  | > 100 |  |  |  |  |  |  | 
17 | O=C(CSc1nnc(-c2ccccc2NC(=O)C(F)(F)F)c(=O)[nH]1)NC(=O)Nc1ccccc1 |  | > 100 |  | > 100 | 44.7 | > 100 | > 100 | > 100 |  |  |  |  |  |  |  | 
18 | N#CC(/C(=N/NC(=O)C(=O)NN)C(=O)NC12CC3CC(CC(C3)C1)C2)c1ccccc1 (configuration not stated) | > 100 | > 100 | > 100 | > 100 | > 100 | > 100 | > 100 |  | > 100 |  |  |  |  |  |  | 
